Test results published in patent US11076597B2, “High stress resistant plant growth regulator and preparation method and use thereof” (SHANGHAI INSTITUTES FOR BIOLOGICAL SCIENCES, CHINESE …, priority 2015, dated 2021).
“Also recorded” adds a separate entry of the source. Read-outs that look alike come from different tables or passages of the source.

Assays:
[1] = molecular target: T1, PYL2 receptor-HAB1 protein phosphatase complex (Arabidopsis thaliana, UniProt O80992); experiment: AlphaScreen assay: promotion of PYL2 receptor binding to PP2C protein phosphatase HAB1; conditions: 6×His-SUMO-tagged PYL2 (aa 14-188), Biotin-tagged HAB1 (aa 172-511), 100 nM each, pH 7.4, 1.5 h room temperature, read-out: EC50
T1 construct: made in house; host or cells: E. coli BL21 (DE3)
T1 sequence (O80992 14-188): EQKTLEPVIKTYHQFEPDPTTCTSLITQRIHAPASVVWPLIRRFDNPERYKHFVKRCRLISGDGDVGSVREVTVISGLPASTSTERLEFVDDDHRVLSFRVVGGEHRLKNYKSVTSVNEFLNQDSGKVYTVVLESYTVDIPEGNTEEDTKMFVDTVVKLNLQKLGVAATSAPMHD
T1 sequence (Q9CAJ0 172-511 partner limits assumed): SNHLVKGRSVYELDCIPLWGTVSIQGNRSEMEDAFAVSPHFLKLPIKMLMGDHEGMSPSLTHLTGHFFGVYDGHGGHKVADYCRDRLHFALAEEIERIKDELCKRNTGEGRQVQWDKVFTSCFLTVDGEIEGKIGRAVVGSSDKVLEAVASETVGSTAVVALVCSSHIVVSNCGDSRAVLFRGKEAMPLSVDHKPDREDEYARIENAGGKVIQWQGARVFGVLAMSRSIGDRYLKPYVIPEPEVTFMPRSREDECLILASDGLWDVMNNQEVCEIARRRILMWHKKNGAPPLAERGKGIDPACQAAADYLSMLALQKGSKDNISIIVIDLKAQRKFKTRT
Text: (§1) The construction method of recombinant plasmids for the Arabidopsis thaliana genes PYL1 (amino acid sequence 36-211), PYL2 (amino acid sequence 14-188) with dual tags of 6×His and SUMO sequence and the Arabidopsis thaliana gene HAB1 (amino acid sequence 172-511) with the Biotin tag sequence is described in detail in “A gate-latch-lock mechanism for hormone signaling by abscisic acid receptors” (Nature, Vol 462, 2009). The construction method of recombinant plasmids for PYR1 and PYL7 (whole gene coding sequence) and Soybean GmPYL6 and rice OsPYL2 with dual tags of 6×His and SUMO sequence is the same as that for Arabidopsis PYL2.
(§2) The above recombinant plasmid is transformed into competent cell of E. coli BL21 (DE3) (purchased from NEB company), and inoculated into 200 ml of LB liquid medium containing Amp resistance (purchased from OXOID company) and cultured overnight at 37° C. at 200 rpm; and inoculated into 2 L of LB liquid medium containing Amp resistance at a ratio of 1:50-1:100 for an extended culture, and cultured at 37° C., 200 rpm for 3-4 hours, and at a low temperature of 16° C. until OD600 is about 0.8-1.0. Recombinant plasmids for PYR1/PYL1/PYL2/PYL7/GmPYL6/OsPYL2 with dual tags of 6×His and SUMO sequence were induced overnight with 100 μM of IPTG while HAB1 recombinant plasmid with the Biotin tag sequence was induced simultaneously with 100 μM of IPTG and 40 μM of biotin.
(§3) After 16 hours of induction, the bacterial solution was centrifuged at 4000 rpm for 20 minutes at 4° C. in a low-speed high-capacity centrifuge, and the bacteria cells were collected. Bacteria cells were resuspended in 50 ml of extraction buffer (containing 20 mM Tris, pH 8.0, 200 mM NaCl and 10% (v/v) glycerol) for per 2 L of bacterial solution and then subjected to pressure-breaking at […] and 4° C. for 3-5 times. The broken cells were subjected to ultracentrifugation, centrifuged at 16000 rpm for 30 minutes, and this process was repeated twice. The supernatant was collected and subjected to an affinity chromatography column.
(§4) For PYR/PYL proteins with dual tags of 6×His and SUMO sequences, 50 ml of affinity chromatography Ni column (50 ml Ni-NTA column, available from GE) was used. Firstly, the column was equilibrated with 600 ml of 10% buffer B (containing 20 mM Tris, PH 8.0, 200 mM NaCl, 500 mM imidazole and 10% glycerol), and then eluted with 200 ml of 50% buffer B and finally eluted with 100 ml of 100% buffer B. Proteins for crystal analysis were mixed with ulp1 enzyme at a molar ratio of 1000:1 for enzymatic dialysis overnight. The digested proteins were subjected to affinity chromatography on a Ni column once more. The collected solution was subjected to a HiLoad 26/60 Superdex200 gel filtration column (commercially available from GE) and eluted with an elution solution (containing 25 mM Tris, pH 8.0, 200 mM ammonium acetate, 1 mM dithiotreitol and 1 mM EDTA) to further separate and purify the protein.
For a HAB1 protein with a Biotin tag sequence, it was subjected to a 50 ml MBP affinity column (available from GE). The column was firstly equilibrated with 600 ml of 10% buffer C (containing 20 mM Tris, pH 8.0, 200 mM NaCl, 10 mM Maltose and 10% Glycerol), and eluted with 200 ml of 50% buffer C and finally eluted with 100 ml of 100% buffer C. The collection solution was subjected to a HiLoad 26/60 Superdex200 gel filtration column and eluted with an elution solution (containing 20 mM Tris, pH 8.0, 200 mM NaCl and 10% Glycerol) to further separate and purify the protein. […]

[2] = molecular target: T1, PYL2 receptor-HAB1 protein phosphatase complex; experiment: AlphaScreen assay, PYL2 receptor binding to HAB1; assay type: biochemical; conditions: fraction of the EC50 of ABA; FIG. 2c, 2e-2g
Protocol: (§5) The AlphaScreen kit (available from Perkin Elmer) was used, and the method was as follows: a 10× buffer (50 mM MOPS, pH 7.4, 50 mM NaF, 50 mM CHAPS, 0.1 mg/ml bovine serum albumin) diluted at 1:10, each of 100 nM HAB1 with Biotin tag sequence and PYR1/PYL1/PYL2/PYL7/GmPYL6/OsPYL2 protein with dual tags of 6×His and SUMO sequences, corresponding concentrations of (+)-ABA/0224/0304/0706/0708/0713/0715/0428/NC0F4, and 5 μg/ml donor beads and acceptor beads (available from Perkin Elmer) were contained in 150 μl of experimental system. After incubating for 1.5 hours at room temperature in the dark, it was placed into an Envision Plate Reader (available from Perkin Elmer) under the programmed AlphaScreen procedure for readings.
(§6) AlphaScreen technology was used to test the ability of the compounds of the present invention to promote PYL receptor binding to PP2C protein phosphatase (HAB1).

[3] = molecular target: T2, PYL2 receptor-HAB1 complex (Arabidopsis thaliana, UniProt O80992); experiment: HAB1 phosphatase activity assay (SnRK2.6 phosphorylated polypeptide as substrate); assay type: biochemical; conditions: FIG. 1a-1g; 100 nM HAB1, 500 nM PYL2
T2 construct: made in house; host or cells: E. coli BL21 (DE3)
T2 sequence (O80992 14-188): T1 sequence (O80992 14-188)
T2 sequence (Q9CAJ0 172-511 partner limits assumed): T1 sequence (Q9CAJ0 172-511 partner limits assumed)
Protocol: 50 mM imidazole, pH 7.2, 5 mM MgCl2, 0.1% β-mercaptoethanol, 0.5 μg·ml^−1 BSA, 100 nM HAB1 protein with a Biotin tag sequence, 500 nM PYL2 receptor protein with 6×His-SUMO dual tag sequence and the corresponding concentration of (+)-ABA/0224/0304/0706/0708/0713/0715/1028c/0428/1022B/NC0F4 were contained in the reaction system. The reaction system was incubated at room temperature for 30 minutes, followed by a further reaction for 30 minutes after adding an 11-amino acid phosphorylated polypeptide as a substrate. The phosphorylated polypeptide is amino acid 170-180 of SnRK2.6 protein kinase, wherein phosphorylated serine at position 175 (with a sequence of HSQPKpSTVGTP, purchased from Kingsley Company) was a known HAB1 dephosphorylation target site. After 30 minutes, chromogenic reagent (purchased from BioVision) was added and the absorbance at 650 nm was read on a microplate reader (Molecular Devices).

[4] = test system: ABA-induced environmental stress-related gene (COR15a, COR47, RAB18 and RD29b); experiment: Gene expression analysis (fluorescence quantitative PCR); assay type: in vivo, Arabidopsis thaliana (Col-0); conditions: 10 μM, 6 hours, 10-day-aged seedlings; FIG. 10
Protocol: The whole plant or leaves were taken, and RNA extraction was carried out by using conventional methods. After reverse transcription, the fluorescence quantitative PCR was carried out. Three biological samples were taken for each treatment which was performed twice. The ACT7 gene was used as a reference gene.

[5] = molecular target: T3, PYR1 receptor-HAB1 protein phosphatase complex (Arabidopsis thaliana, UniProt O49686); experiment: AlphaScreen assay: promotion of PYR1 receptor binding to PP2C protein phosphatase HAB1; conditions: FIG. 2h; 6×His-SUMO-tagged PYR1 (whole coding sequence), Biotin-tagged HAB1 (aa 172-511), 100 nM each; pH 7.4; 1.5 h room temperature; read-out: EC50
T3 construct: made in house; host or cells: E. coli BL21 (DE3)
T3 sequence (O49686 1-191): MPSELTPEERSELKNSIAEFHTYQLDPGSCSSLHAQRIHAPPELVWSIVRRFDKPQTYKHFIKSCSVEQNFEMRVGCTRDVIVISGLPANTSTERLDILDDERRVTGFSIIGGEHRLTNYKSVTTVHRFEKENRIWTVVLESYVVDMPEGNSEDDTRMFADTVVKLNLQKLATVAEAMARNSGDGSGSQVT
T3 sequence (Q9CAJ0 172-511 partner limits assumed): T1 sequence (Q9CAJ0 172-511 partner limits assumed)
Text: as §1, §2, §3, §4
For a HAB1 protein with a Biotin tag sequence, it was subjected to a 50 ml MBP affinity column (available from GE). The column was firstly equilibrated with 600 ml of 10% buffer C (containing 20 mM Tris, pH 8.0, 200 mM NaCl, 10 mM Maltose and 10% Glycerol), and eluted with 200 ml of 50% buffer C and finally eluted with 100 ml of 100% buffer C. […]

[6] = molecular target: T3, PYR1 receptor-HAB1 protein phosphatase complex; experiment: AlphaScreen assay, PYR1 receptor binding to HAB1; assay type: biochemical; conditions: fraction of the EC50 of ABA; FIG. 2a, 2h
Protocol: as §5, §6

| Compound | EC50 ([1]; FIG. 2e) [nM] | EC50 value with PYL2 receptor-HAB1 complex as fraction of that of ABA [2] | EC50 ([1]; FIG. 2g) [nM] | EC50 [5] [nM] | EC50 value with PYR1 receptor-HAB1 complex as fraction of that of ABA [6] | inhibition of HAB1 protein phosphatase activity by promoting binding between PYL2 receptor and HAB1 [3] | expression level of COR15a, COR47, RAB18 and RD29b [4] |
| --- | --- | --- | --- | --- | --- | --- | --- |
| Cc1c(F)c(F)c(CS(=O)(=O)Nc2ccc3c(c2)C(C)OC(=O)N3C(C)C)c(F)c1F (stereo not drawn) [Compound 0708] | 136 | ⅕-⅛ | – | – | – | inhibiting the activity of protein phosphatase HAB1; also recorded: inhibiting the dephosphorylation effect of HAB1 on SnRK2.6 phosphorylated polypeptide | – |
| CCCn1c(=O)ccc2cc(NS(=O)(=O)Cc3ccc(C)cc3)ccc21 [Compound 1022B] | – | one order of magnitude lower than that of ABA | 180 | – | – | inhibiting the activity of protein phosphatase HAB1; also recorded: inhibiting the dephosphorylation effect of HAB1 on SnRK2.6 phosphorylated polypeptide | all higher than those of ABA; also recorded: significantly increased |
| CCCN1C(=O)NC(C)c2cc(NS(=O)(=O)Cc3c(F)c(F)c(C)c(F)c3F)ccc21 (stereo not drawn) [Compound 1028c] | – | – | – | – | – | inhibiting the activity of protein phosphatase HAB1; also recorded: inhibiting the dephosphorylation effect of HAB1 on SnRK2.6 phosphorylated polypeptide | – |

Further lines, with some results ahead:

| EC50 ([1]; FIG. 2e) [nM] | EC50 value with PYL2 receptor-HAB1 complex as fraction of that of ABA [2] | EC50 ([1]; FIG. 2g) [nM] | EC50 [5] [nM] | EC50 value with PYR1 receptor-HAB1 complex as fraction of that of ABA [6] | Compound | inhibition of HAB1 protein phosphatase activity by promoting binding between PYL2 receptor and HAB1 [3] | expression level of COR15a, COR47, RAB18 and RD29b [4] |
| --- | --- | --- | --- | --- | --- | --- | --- |
| 181 | ⅕-⅛ | – | – | – | Cc1c(F)c(F)c(CS(=O)(=O)Nc2ccc3c(c2)C(C)OC(=O)N3CC(C)C)c(F)c1F (stereo not drawn) [Compound 0713] | inhibiting the activity of protein phosphatase HAB1; also recorded: inhibiting the dephosphorylation effect of HAB1 on SnRK2.6 phosphorylated polypeptide | – |
| – | better PYL2 receptor affinity over ABA | – | 373 | about 1/11 | CCCN1C(=O)NCc2cc(NS(=O)(=O)Cc3c(F)c(F)c(C)c(F)c3F)ccc21 [Compound NC0F4] | inhibiting the activity of protein phosphatase HAB1; also recorded: inhibiting the dephosphorylation effect of HAB1 on SnRK2.6 phosphorylated polypeptide | – |
